Laboratory results reported in the NIST ThermoML archive (doi:10.1016/j.tca.2015.01.022).
Values joined by “and” are separate entries in the source; they are usually repeats but may differ in a detail not shown here. Identical values can stand only once.

Test: molar heat capacity at constant pressure
Settings: 101.33 kPa, Small (less than 1 g) adiabatic calorimetry

CCOS(=O)(=O)[O-].CCn1cc[n+](C)c1 [1-ethyl-3-methylimidazolium ethyl sulfate]
Settings	molar heat capacity at constant pressure
180.75 K, Glass	245 J/K/mol
181.34 K, Glass	247.6 J/K/mol
182.03 K, Glass	250.7 J/K/mol
182.57 K, Glass	253.8 J/K/mol
183.25 K, Glass	259.2 J/K/mol
183.91 K, Glass	266.1 J/K/mol
184.33 K, Glass	269.6 J/K/mol
185.05 K, Liquid	286.4 J/K/mol
185.68 K, Liquid	306.2 J/K/mol
185.91 K, Liquid	312.8 J/K/mol
186.66 K, Liquid	340.5 J/K/mol
187.36 K, Liquid	351.6 J/K/mol and 351.8 J/K/mol
188.23 K, Liquid	351.6 J/K/mol
188.86 K, Liquid	353 J/K/mol
189.2 K, Liquid	353 J/K/mol
189.84 K, Liquid	354 J/K/mol
190 K, Liquid	354.1 J/K/mol
190.38 K, Liquid	354.4 J/K/mol
191.46 K, Liquid	354.4 J/K/mol
192.04 K, Liquid	354.7 J/K/mol
193.08 K, Liquid	354.7 J/K/mol
193.85 K, Liquid	354.7 J/K/mol
194.7 K, Liquid	354.7 J/K/mol
195.65 K, Liquid	354.9 J/K/mol
196.33 K, Liquid	354.9 J/K/mol
197.47 K, Liquid	355.1 J/K/mol
197.95 K, Liquid	355.1 J/K/mol
199.29 K, Liquid	355.4 J/K/mol
199.58 K, Liquid	355.4 J/K/mol
200 K, Liquid	355.5 J/K/mol
201.11 K, Liquid	355.6 J/K/mol
201.27 K, Liquid	355.6 J/K/mol
201.65 K, Liquid	355.9 J/K/mol
202.93 K, Liquid	356.1 J/K/mol
203 K, Liquid	355.9 J/K/mol
203.57 K, Liquid	356.1 J/K/mol
204.74 K, Liquid	356.1 J/K/mol
204.76 K, Liquid	356.6 J/K/mol
205.5 K, Liquid	356.3 J/K/mol
206.48 K, Liquid	356.6 J/K/mol
206.59 K, Liquid	356.8 J/K/mol
207.44 K, Liquid	356.8 J/K/mol
208.23 K, Liquid	356.8 J/K/mol
208.43 K, Liquid	357 J/K/mol
209.37 K, Liquid	357.3 J/K/mol
209.97 K, Liquid	357 J/K/mol
210 K, Liquid	357.2 J/K/mol
210.26 K, Liquid	357.3 J/K/mol
211.31 K, Liquid	357.5 J/K/mol
211.72 K, Liquid	357.5 J/K/mol
212.11 K, Liquid	357.7 J/K/mol
213.25 K, Liquid	358 J/K/mol
213.47 K, Liquid	357.7 J/K/mol
213.95 K, Liquid	358 J/K/mol
215.19 K, Liquid	358.2 J/K/mol
215.23 K, Liquid	358 J/K/mol
215.8 K, Liquid	358.5 J/K/mol
217.12 K, Liquid	358.7 J/K/mol
217.65 K, Liquid	358.7 J/K/mol
219.06 K, Liquid	359.2 J/K/mol
219.5 K, Liquid	359.2 J/K/mol
220 K, Liquid	359.2 J/K/mol
221 K, Liquid	359.4 J/K/mol
221.36 K, Liquid	359.6 J/K/mol
222.94 K, Liquid	359.9 J/K/mol
223.21 K, Liquid	359.9 J/K/mol
224.88 K, Liquid	360.3 J/K/mol
225.07 K, Liquid	360.3 J/K/mol
226.82 K, Liquid	361.1 J/K/mol
226.93 K, Liquid	360.8 J/K/mol
228.76 K, Liquid	361.3 J/K/mol
228.8 K, Liquid	361.3 J/K/mol
230 K, Liquid	361.6 J/K/mol
230.66 K, Liquid	361.8 J/K/mol
230.7 K, Liquid	361.8 J/K/mol
232.53 K, Liquid	362.2 J/K/mol
232.64 K, Liquid	362.2 J/K/mol
234.39 K, Liquid	362.7 J/K/mol
234.58 K, Liquid	362.7 J/K/mol
236.26 K, Liquid	363.2 J/K/mol
236.53 K, Liquid	363.4 J/K/mol
238.13 K, Liquid	363.9 J/K/mol
238.47 K, Liquid	363.9 J/K/mol
240 K, Liquid	364.3 J/K/mol
240.01 K, Liquid	364.4 J/K/mol
240.41 K, Liquid	364.6 J/K/mol
241.88 K, Liquid	364.8 J/K/mol
242.36 K, Liquid	365.1 J/K/mol
243.76 K, Liquid	365.3 J/K/mol
244.3 K, Liquid	365.5 J/K/mol
245.64 K, Liquid	365.8 J/K/mol
246.24 K, Liquid	366.2 J/K/mol
247.52 K, Liquid	366.5 J/K/mol
248.19 K, Liquid	366.7 J/K/mol
249.39 K, Liquid	367 J/K/mol
250 K, Liquid	367.1 J/K/mol
250.13 K, Liquid	367.4 J/K/mol
251.27 K, Liquid	367.4 J/K/mol
252.07 K, Liquid	367.9 J/K/mol
253.16 K, Liquid	368.1 J/K/mol
254.02 K, Liquid	368.6 J/K/mol
255.04 K, Liquid	368.6 J/K/mol
255.96 K, Liquid	369.1 J/K/mol
256.92 K, Liquid	369.1 J/K/mol
257.91 K, Liquid	369.8 J/K/mol
258.8 K, Liquid	369.8 J/K/mol
259.85 K, Liquid	370.3 J/K/mol
260 K, Liquid	370.1 J/K/mol
260.69 K, Liquid	370.3 J/K/mol
261.8 K, Liquid	370.7 J/K/mol
263.74 K, Liquid	371.4 J/K/mol
265.69 K, Liquid	372.2 J/K/mol
267.63 K, Liquid	372.6 J/K/mol
269.58 K, Liquid	373.3 J/K/mol
270 K, Liquid	373.3 J/K/mol
271.52 K, Liquid	373.8 J/K/mol
273.46 K, Liquid	374.3 J/K/mol
275.41 K, Liquid	375 J/K/mol
277.35 K, Liquid	375.7 J/K/mol
279.3 K, Liquid	376.2 J/K/mol
280 K, Liquid	376.4 J/K/mol
281.24 K, Liquid	376.6 J/K/mol
283.19 K, Liquid	377.4 J/K/mol
285.13 K, Liquid	378.1 J/K/mol
287.08 K, Liquid	378.3 J/K/mol
289.02 K, Liquid	379.2 J/K/mol
290 K, Liquid	379.6 J/K/mol
290.96 K, Liquid	380 J/K/mol
292.91 K, Liquid	380.7 J/K/mol
294.85 K, Liquid	381.4 J/K/mol
296.79 K, Liquid	382.1 J/K/mol
298.15 K, Liquid	382.8 J/K/mol
298.74 K, Liquid	383 J/K/mol
300 K, Liquid	383.6 J/K/mol
300.68 K, Liquid	383.7 J/K/mol
302.62 K, Liquid	384.7 J/K/mol
304.57 K, Liquid	385.4 J/K/mol
306.51 K, Liquid	386.3 J/K/mol
308.45 K, Liquid	387.3 J/K/mol
310 K, Liquid	388 J/K/mol
310.39 K, Liquid	388 J/K/mol
312.34 K, Liquid	388.9 J/K/mol
314.28 K, Liquid	389.6 J/K/mol
316.22 K, Liquid	390.6 J/K/mol
318.17 K, Liquid	391.5 J/K/mol
320 K, Liquid	392.6 J/K/mol
320.11 K, Liquid	392.5 J/K/mol
322.05 K, Liquid	393.7 J/K/mol
324 K, Liquid	394.4 J/K/mol
325.94 K, Liquid	395.3 J/K/mol
327.89 K, Liquid	396.3 J/K/mol
329.83 K, Liquid	397.2 J/K/mol
330 K, Liquid	397.3 J/K/mol
331.77 K, Liquid	398.1 J/K/mol
333.72 K, Liquid	399.1 J/K/mol
335.66 K, Liquid	400.3 J/K/mol
337.61 K, Liquid	401.5 J/K/mol
339.55 K, Liquid	402.2 J/K/mol
340 K, Liquid	402.3 J/K/mol
341.5 K, Liquid	403.1 J/K/mol
343.44 K, Liquid	404.3 J/K/mol
345.39 K, Liquid	405 J/K/mol
347.33 K, Liquid	405.9 J/K/mol
349.28 K, Liquid	407.1 J/K/mol
350 K, Liquid	407.5 J/K/mol
351.22 K, Liquid	408.1 J/K/mol
353.17 K, Liquid	409.3 J/K/mol
355.11 K, Liquid	410.2 J/K/mol
357.06 K, Liquid	411.1 J/K/mol
359 K, Liquid	412.1 J/K/mol
360 K, Liquid	412.8 J/K/mol
360.94 K, Liquid	413.3 J/K/mol
362.88 K, Liquid	414.2 J/K/mol
364.83 K, Liquid	415.2 J/K/mol
366.77 K, Liquid	416.3 J/K/mol
370 K, Liquid	418.4 J/K/mol
